{
  "source": "paper PMC5842439",
  "about": "(Nuclear medicine and biology, 2013)",
  "tested_on": "BT474 xenografts",
  "settings": "for tumor SUV, % of pretreatment SUV: mice without DOX (n=8), mean±SD",
  "note": "Like-named read-outs stand apart in the source and are kept apart here.",
  "data": [
    {"smiles": "OC[C@H]1OC(O)[C@H]([18F])[C@@H](O)[C@@H]1O", "note": "(stereo partly shown) [Agent F-18-FDG, 2’-F-18-fluorodeoxyglucose]", "values": [
      {"measurement": "muscle uptake in contralateral normal thigh", "setting": "PET imaging, mouse bearing BT474 tumor in the right thigh", "value": "significant"},
      {"measurement": "tumor SUV, % of pretreatment SUV", "setting": "3rd week", "value": "108±28", "unit": "%"},
      {"measurement": "tumor SUV, % of pretreatment SUV", "setting": "5th week", "value": "151±8", "unit": "%"},
      {"measurement": "tumor SUV, % of pretreatment SUV", "setting": "7th week", "value": "152±355", "unit": "%"}
    ]}
  ]
}
